Columns and labels:
[1] = Plasma profile in rats after 10 mg/kg oral dose of Compound 22 sodium salt; assay type: in vivo; settings: rat, after a 10 mg/kg oral dose of Compound 22 (sodium salt, FIG. 25), male rats
[2] = tested on: MCT-induced pulmonary arterial hypertension; experiment: Rat monocrotaline (MCT) model of pulmonary arterial hypertension; assay type: in vivo; settings: 30 mg/kg oral gavage twice a day for 21 days; 60 mg/kg MCT s.c.; male Wistar rats
Procedure: Male Wistar rats (100-150 g at start of study) (Charles River Laboratories, Wilmington, Mass.) were housed two per cage and maintained in a humidity—(40-60%) and temperature—(68-72° F.) controlled facility on a 12 hr:12 hr light/dark cycle (lights on at 6:30 am) with free access to food (Harlan Teklad, Orange Calif., Rodent Diet 8604) and water. Rats were allowed one week of habituation to the animal facility before testing.
The rat monocrotaline (MCT) model is a standard and well-accepted model of pulmonary arterial hypertension. MCT induces acute pulmonary endothelial damage associated with pulmonary vascular inflammation. […]
Rats were randomly given a single subcutaneous injection of either 60 mg/kg MCT (Sigma, St. Louis, Mo.) or 0.9% saline (sham) and assigned to receive oral administration of 20% hydroxypropyl beta-cyclodextrin (vehicle) or test compound (30 mg/kg; FIGS. 7 and 8). […] Heart chamber weights were measured on Day 22. […] The ratio of right ventricular (RV) weight to left ventricle plus septum (LV+S) weight (this ratio is indicated as “RV/(LV+S)” in FIGS. 7 and 8) was calculated as an index of the hypertrophic response to the induced pulmonary arterial hypertension and, as such, as an index of a test compound's therapeutic efficacy for pulmonary arterial hypertension.

[3] = Pharmacokinetics in rats after oral administration of Compound 99; assay type: in vivo, Sprague-Dawley rat; settings: for half-life: read-out: terminal phase half-life (T1/2) (converted)
Procedure: Blood samples were obtained from 0.100 to 21.0 h post-dose for plasma drug concentration measurements. […] Pharmacokinetic parameters were estimated using non-compartmental pharmacokinetic analysis.

[4] = Excipient compatibility (stability) study; assay type: physicochemical; settings: four weeks in a glass vial at 50° C.
Procedure: Compound 22 was tested for stability in three of the excipients.

human hepatocytes = experiment: Hepatocyte metabolism of Compound 22 sodium salt, human; assay type: in vitro ADME; settings: 100 μM, up to 240 min
Procedure: (§1) All cryopreserved hepatocytes were thawed and diluted to a desired cell density (1×10^6 cells/mL) according to the supplier's (Xenotech) guidelines using hepatocytes isolation kit. Cell viability was determined by trypan blue exclusion using a hemacytometer. A typical incubation mixture contained human, cynomolgus monkey, beagle dog or Sprague-Dawley rat hepatocytes (200,000 cells/199 μL) in designated wells of a 48-well plate containing incubation medium (Phenol red-free Waymouth's medium). […] One incubation plate was prepared for each time point (i.e., 0, 60, 120, and 240 min) with samples being prepared in duplicate. Incubations were conducted at 37° C., 5% CO2 and 100% relative humidity in an incubator. At each time point, one incubation plate was removed form the incubator, and reaction was terminated by adding 400 μL of acetonitrile containing an internal standard. For the 0 min time point, the reactions were kept on ice before adding Compound 22 sodium salt. After 5 min on ice, the reaction mixture was terminated by adding 400 μL of acetonitrile containing an internal standard. Supernatants were transferred to labeled strip tubes with caps, which were vortexed for 3 min, and then sonicated for an additional 3 min. The samples were centrifuged for 10 min at 4000 rpm and the supernatants were used for metabolite identification. […]

[5] = tested on: cynomolgus monkey hepatocytes; experiment: Hepatocyte metabolism of Compound 22 sodium salt, monkey; assay type: in vitro ADME; settings: 100 μM, up to 240 min
Procedure: as §1

[6] = tested on: Sprague-Dawley rat hepatocytes; experiment: Hepatocyte metabolism of Compound 22 sodium salt, rat; assay type: in vitro ADME; settings: 100 μM, up to 240 min
Procedure: as §1

[7] = In vivo metabolism of Compound 22 sodium salt in bile-duct cannulated rats; set-up: species or system Sprague-Dawley rat
Procedure: Three bile-duct cannulated male Sprague-Dawley rats were dosed intravenously (IV) at 2.00 mg/kg. In addition to plasma samples, bile and urine were collected from 0 to 48 hours post-dose.

beagle dog hepatocytes = experiment: Hepatocyte metabolism of Compound 22 sodium salt, dog; assay type: in vitro ADME; settings: 100 μM, up to 240 min
Procedure: as §1

[8] = Dynamic vapor sorption (DVS) hygroscopicity; assay type: physicochemical; settings: at 90% relative humidity; listed as Form 1 of the sodium salt of Compound 22
Procedure: Hygroscopicity was measured using a dynamic moisture-sorption analyzer, VTI Corporation, SGA-100. The sample was placed as-is in a tared sample holder on the VTI balance. A drying step was run at 40° C. and ˜1% RH for 60 to 120 min. The isotherm conditions are 25° C. with steps of 20% RH from 10% RH up to 90% RH and back to 10% RH. The weight was checked every 2 min. Percent weight change of <0.01% in 20 min or 2 h, whichever occurs first, is required before continuing to the next step.

[9] = Excipient solubility study
Procedure: The solubility of 2-(((1r,4r)-4-(((4-chlorophenyl)(phenyl)carbamoyloxy)methyl)cyclohexyl)methoxy)acetic acid (Compound 22) and sodium 2-(((1r,4r)-4-(((4-chlorophenyl)(phenyl)carbamoyloxy)methyl)cyclohexyl)methoxy)acetate (Compound 22 sodium salt) in various excipients was measured.

[10] = Sprague-Dawley, rat, plasma analyte after 1.25 mg/kg oral dose of Compound 99, male rats
[11] = plasma analyte after 1.25 mg/kg oral dose of Compound 99, male rats

SMILES: O=C(O)COC[C@H]1CC[C@H](COC(=O)N(c2ccccc2)c2ccc(Cl)cc2)CC1 [Compound 22, 2-(((1r,4r)-4-(((4-chlorophenyl)(phenyl)carbamoyloxy)methyl)cyclohexyl)methoxy)acetic acid]
- Tmax [1]: 1.5 h
- hypertrophic response, RV/(LV+S) [2]: inhibited the hypertrophic response
- AUC(0-t) [3, 10]: 935 ng·h/mL
- Cmax [3, 10]: 214 ng/mL
- half-life [3, 10]: 3.51 h
- time of Cmax [3, 11]: 2.67 h
- stability in solution ([4]; Cremophor RH 40): no observable degradation or API assay loss
- stability in solution ([4]; Imwitor 742): no observable degradation or API assay loss
- stability in solution ([4]; TPGS 1000): no observable degradation or API assay loss

SMILES: O=C(COC[C@H]1CC[C@H](COC(=O)N(c2ccccc2)c2ccc(Cl)cc2)CC1)NCCS(=O)(=O)O [Compound 99, 2-(2-(((1r,4r)-4-(((4-chlorophenyl)(phenyl)carbamoyloxy)methyl)cyclohexyl)methoxy)acetamido) ethanesulfonic acid]
- metabolite of Compound 22 sodium salt in human hepatocytes (human hepatocytes): detected
- metabolite of Compound 22 sodium salt in monkey hepatocytes [5]: detected
- metabolite of Compound 22 sodium salt in rat hepatocytes [6]: detected
- metabolite in bile ([7]; 2.00 mg/kg IV of Compound 22 sodium salt, bile 0 to 48 hours): observed in bile
- metabolite in urine ([7]; 2.00 mg/kg IV of Compound 22 sodium salt, urine 0 to 48 hours): not observed in urine
- metabolite of Compound 22 sodium salt in rats ([7]; 2.00 mg/kg IV, male rats): major metabolite
- metabolite of Compound 22 sodium salt in dog hepatocytes (beagle dog hepatocytes): detected
- conversion to parent ([3]; 1.25 mg/kg oral dose in rats): converted to Compound 22
- exposure ([3]; 1.25 mg/kg oral dose in rats): minimal exposure
- AUC(0-t) [3, 10]: 11.9 ng·h/mL
- Cmax at 3.33 h [3, 10]: 1.93 ng/mL
- half-life [3, 10]: 3.24 h
- Tmax ([3]; male, Sprague-Dawley, rat, plasma, 10 mg/kg, after oral dose of the taurine conjugate of Compound 22): 3 h
- time of Cmax [3, 11]: 3.33 h

SMILES: O=C([O-])COC[C@H]1CC[C@H](COC(=O)N(c2ccccc2)c2ccc(Cl)cc2)CC1.[Na+] [Sodium Salt of Compound 22, sodium 2-(((1r,4r)-4-(((4-chlorophenyl)(phenyl)carbamoyloxy)methyl)cyclohexyl)methoxy)acetate]
- DVS absorption [8]: less than 0.25%
- Solubility ([9]; Corn Oil): <100 µg/mL
- Solubility ([9]; Cremophor RH 40): 7820 µg/mL
- Solubility ([9]; Gelucire 44/14): 1610 µg/mL
- Solubility ([9]; Gelucire 50/13): <10000 µg/mL
- Solubility ([9]; Imwitor 742): 16200 µg/mL
- Solubility ([9]; Labrasol): 12980 µg/mL
- Solubility ([9]; Lauroglycol 90): 260 µg/mL
- Solubility ([9]; PEG400): 4850 µg/mL
- Solubility ([9]; PEG6000): <10000 µg/mL
- Solubility ([9]; Safflower oil): <100 µg/mL
- Solubility ([9]; TPGS 1000): 2550 µg/mL

Reference: patent US10668033B2, “Modulators of the prostacyclin (PGI2) receptor useful for the treatment of disorders related thereto” (Arena Pharmaceuticals, Inc., priority 2008, dated 2020)
